Experimental data from publication PMC9005681, “Use of AD Informer Set compounds to explore validity of novel targets in Alzheimer's disease pathology” (Alzheimer's & Dementia : Translational Research & Clinical …, 2022).

Assays:
CAPN2 = system: CAPN2; set-up: method as in Probe Miner, PubMed 9637399, 31133534, 30052328; details: published affinity; ref Probe Miner, PubMed 9637399, 31133534, 30052328; cited from earlier work
[1] = target: T1, cloned human or rodent CNS receptors, channels, and transporters (PDSP panel) (Homo sapiens, UniProt P21918); assay: PDSP GPCR panel primary binding assays at 10 μM; details: D5, primary assay; for Mean %: mean inhibition; for Inhibition 1: replicate 1; for Inhibition 2: replicate 2; for Inhibition 3: replicate 3; for Inhibition 4: replicate 4
T1 construct: expressed in transfected cells
T1 sequence (P21918 whole entry): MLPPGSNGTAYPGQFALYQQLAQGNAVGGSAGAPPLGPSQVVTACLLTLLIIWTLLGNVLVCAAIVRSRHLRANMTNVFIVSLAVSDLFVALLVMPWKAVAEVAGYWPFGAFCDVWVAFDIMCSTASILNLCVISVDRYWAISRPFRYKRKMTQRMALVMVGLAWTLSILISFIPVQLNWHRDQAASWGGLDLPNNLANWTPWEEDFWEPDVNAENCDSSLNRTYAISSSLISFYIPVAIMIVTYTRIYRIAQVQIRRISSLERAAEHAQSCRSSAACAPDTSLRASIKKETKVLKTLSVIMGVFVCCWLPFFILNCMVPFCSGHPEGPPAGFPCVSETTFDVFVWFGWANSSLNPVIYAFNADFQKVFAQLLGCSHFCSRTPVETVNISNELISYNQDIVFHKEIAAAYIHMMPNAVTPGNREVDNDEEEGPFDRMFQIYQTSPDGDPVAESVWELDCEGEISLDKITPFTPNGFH
Method in brief: (§1)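 PDSP panel of 46–47 cloned human or rodent CNS receptors, channels and transporters; radioligand displacement by compound at 10 μM, in quadruplicate. Where average displacement exceeded 50%, secondary binding followed as 11-point dose-response in triplicate (none for H3, PBR or GABAA).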

[2] = target: T2, cloned human or rodent CNS receptors, channels, and transporters (PDSP panel) (Rattus norvegicus, UniProt Q5U3Y7); assay: PDSP GPCR panel primary binding assays at 10 μM; details: Sigma 2, primary assay; for Inhibition 1: replicate 1; for Inhibition 2: replicate 2; for Inhibition 3: replicate 3; for Inhibition 4: replicate 4
T2 construct: expressed in transfected cells
T2 sequence (Q5U3Y7 1-176): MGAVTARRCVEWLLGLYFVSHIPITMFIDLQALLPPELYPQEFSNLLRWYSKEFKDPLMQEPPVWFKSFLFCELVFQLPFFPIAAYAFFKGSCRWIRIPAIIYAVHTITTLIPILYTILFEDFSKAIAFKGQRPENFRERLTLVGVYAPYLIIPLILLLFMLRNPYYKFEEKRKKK
Method in brief: as §1

[3] = target: T3, cloned human or rodent CNS receptors, channels, and transporters (PDSP panel) (Cavia porcellus, UniProt Q60492); assay: PDSP GPCR panel primary binding assays at 10 μM; details: Sigma 1, primary assay; for Inhibition 1: replicate 1; for Inhibition 2: replicate 2; for Inhibition 3: replicate 3; for Inhibition 4: replicate 4
T3 construct: expressed in transfected cells
T3 sequence (Q60492 whole entry): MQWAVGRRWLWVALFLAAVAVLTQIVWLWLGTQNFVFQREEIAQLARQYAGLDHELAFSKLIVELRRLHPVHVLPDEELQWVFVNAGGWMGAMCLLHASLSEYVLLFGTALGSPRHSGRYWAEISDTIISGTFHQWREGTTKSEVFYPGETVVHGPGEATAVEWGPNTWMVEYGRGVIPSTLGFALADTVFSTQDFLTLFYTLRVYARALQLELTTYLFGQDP
Method in brief: as §1

[4] = target: T4, cloned human or rodent CNS receptors, channels, and transporters (PDSP panel) (Homo sapiens, UniProt P50406); assay: PDSP GPCR panel primary binding assays at 10 μM; details: 5-HT6, primary assay; for Mean %: mean inhibition; for Inhibition 1: replicate 1; for Inhibition 2: replicate 2; for Inhibition 3: replicate 3; for Inhibition 4: replicate 4
T4 construct: expressed in transfected cells
T4 sequence (P50406 whole entry): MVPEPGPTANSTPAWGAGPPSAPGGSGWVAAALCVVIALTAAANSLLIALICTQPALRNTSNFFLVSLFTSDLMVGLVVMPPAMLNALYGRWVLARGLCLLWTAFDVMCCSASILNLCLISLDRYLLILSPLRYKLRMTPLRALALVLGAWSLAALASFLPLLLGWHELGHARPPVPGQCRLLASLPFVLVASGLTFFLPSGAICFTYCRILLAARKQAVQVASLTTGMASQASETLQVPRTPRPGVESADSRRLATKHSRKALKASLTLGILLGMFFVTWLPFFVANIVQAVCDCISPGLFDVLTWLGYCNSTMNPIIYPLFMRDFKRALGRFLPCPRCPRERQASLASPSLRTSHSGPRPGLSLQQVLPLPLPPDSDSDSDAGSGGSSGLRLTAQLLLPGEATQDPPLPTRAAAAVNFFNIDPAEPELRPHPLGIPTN
Method in brief: as §1

[5] = target: T5, cloned human or rodent CNS receptors, channels, and transporters (PDSP panel) (Homo sapiens, UniProt P28566); assay: PDSP GPCR panel primary binding assays at 10 μM; details: 5-HT1E, primary assay; for Mean %: mean inhibition; for Inhibition 1: replicate 1; for Inhibition 2: replicate 2; for Inhibition 3: replicate 3; for Inhibition 4: replicate 4
T5 construct: expressed in transfected cells
T5 sequence (P28566 whole entry): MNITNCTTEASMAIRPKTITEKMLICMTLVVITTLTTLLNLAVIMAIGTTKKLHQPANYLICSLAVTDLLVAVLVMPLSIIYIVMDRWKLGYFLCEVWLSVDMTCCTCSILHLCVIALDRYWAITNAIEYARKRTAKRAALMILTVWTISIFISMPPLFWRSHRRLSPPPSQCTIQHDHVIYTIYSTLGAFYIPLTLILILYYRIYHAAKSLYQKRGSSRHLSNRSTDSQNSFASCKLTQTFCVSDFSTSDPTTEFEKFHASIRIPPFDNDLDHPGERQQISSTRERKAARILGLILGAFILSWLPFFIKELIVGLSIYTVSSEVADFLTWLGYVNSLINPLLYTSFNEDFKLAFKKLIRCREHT
Method in brief: as §1

[6] = Plasma plus brain concentrations at 1 h after IV dose; format: in vivo; details: mouse, brain and plasma, CD1 mice, IV 10 mg/kg
Protocol: Compounds with acceptable PK were dosed IV at 10 mg/kg and plasma plus brain
concentrations measured at 1h in CD1 mice (3 mice per cohort, Table 2). […]

[7] = mouse, IV, 2.0 mg/kg, published PK values; cited from earlier work

Molecule	Reported on-target biochemical potency, CAPN2 (CAPN2) [nM]	Mean % [1] [%]	Inhibition 1 [1] [%]	Inhibition 2 [1] [%]	Inhibition 3 [1] [%]	Inhibition 4 [1] [%]	Inhibition 1 [2] [%]	Inhibition 2 [2] [%]	Inhibition 3 [2] [%]	Inhibition 4 [2] [%]	Inhibition 1 [3] [%]	Inhibition 2 [3] [%]	Inhibition 3 [3] [%]	Inhibition 4 [3] [%]	Mean % [4] [%]	Inhibition 1 [4] [%]	Inhibition 2 [4] [%]	Inhibition 3 [4] [%]	Inhibition 4 [4] [%]	Mean % [5] [%]	further results
MDL 28170 [UNC10302675A]	0.01	3.1	35	-0.46	-13.75	-8.4	37.24	22.17	24.38	22.39	35.86	2.45	-0.62	-14.57	-4.53	18.94	-17.59	-16	-3.45	-6.22	Inhibition 1 [5]: -3.13%; Inhibition 2 [5]: -5.37%; Inhibition 3 [5]: -7.3%; Inhibition 4 [5]: -9.09%
O=C(NC1CC1)C(=O)C(Cc1ccccc1)NC(=O)[C@H]1CCC(=O)N1Cc1ccccc1 (stereo partly drawn) [UNC10302676A, ABT-957 (Alicapistat)]	56	-6.38	0	3.82	-18.95	-10.39	16.59	3.8	13.22	-4.38	5.01	-7.02	-4.4	-3.65	-7.55	7.34	-8.22	-20.76	-8.54	-4.73	Kp at 1 h [6]: 0.015; AUClast [7]: 35.6 µM·h; CL [7]: 7.8 mL/min/kg; Inhibition 1 [5]: 3.28%; Inhibition 2 [5]: -0.45%; Inhibition 3 [5]: -9.69%; Inhibition 4 [5]: -12.07%
